What was measured:
Homo sapiens = species: Homo sapiens; assay: Inhibition of dual specificity Cell division cycle 25
[1] = Compound was evaluated for its activity against PTP1B (a tyrosine phosphatase)
[2] = target: Dual specificity protein phosphatase 3 (Homo sapiens) (UniProt P51452); assay: Compound was evaluated for its activity against VHR
Chain of Dual specificity protein phosphatase 3 (Homo sapiens) (P51452 whole entry, looked up): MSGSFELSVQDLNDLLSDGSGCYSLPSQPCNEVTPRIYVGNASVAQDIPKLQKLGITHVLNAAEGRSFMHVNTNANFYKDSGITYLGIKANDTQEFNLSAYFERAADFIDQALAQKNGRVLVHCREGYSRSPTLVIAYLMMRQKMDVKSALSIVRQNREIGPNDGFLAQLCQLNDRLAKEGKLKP

Activity (Homo sapiens) [µM]	Activity [1] [µM]	Activity [2] [µM]	Structure (SMILES)
16	> 160	87	O=C(NC1CCCCC1)C(c1ccnc2ccccc12)N(CCc1c[nH]c2ccccc12)C(=O)c1ccc(CP(=O)(O)O)cc1 (centres undefined)
3	107	11	O=C(O)C(Oc1ccc(C(C(=O)NC2CCCCC2)N(Cc2ccc3c(c2)OCO3)C(=O)c2ccc(CP(=O)(O)O)cc2)cc1)C(=O)O (centres undefined)
23	73	19	CC(C)=CCCC(C)C(C(=O)NC1CCCCC1)N(Cc1ccc2c(c1)OCO2)C(=O)c1ccc(CP(=O)(O)O)cc1 (centres undefined)
35	> 96	> 9	O=C(O)CNC(=O)C(c1nccs1)N(Cc1ccc2c(c1)OCO2)C(=O)c1ccc(CP(=O)(O)O)cc1 (centres undefined)
10	95	> 120	Cc1ccc(S(=O)(=O)CNC(=O)C(c2ccc(OCP(=O)(O)O)cc2)N(CCc2c[nH]c3ccccc23)C(=O)c2cc(Br)cc(Br)c2O)cc1 (centres undefined)

Second part, the compound before the results:

Structure (SMILES)	Activity (Homo sapiens) [µM]	Activity [1] [µM]	Activity [2] [µM]
CC(C)=CCCC(C)C(C(=O)NC1CCCCC1)N(CCc1c[nH]c2ccccc12)C(=O)c1ccc(CP(=O)(O)O)cc1 (centres undefined)	23	61	17
O=C(O)C(Oc1ccc(C(=O)N(Cc2ccc3c(c2)OCO3)C(C(=O)NC2CCCCC2)c2ccc(OC(C(=O)O)C(=O)O)cc2)cc1)C(=O)O (centres undefined)	3	89	9
CC(C)/C=C\CC(C)C(C(=O)NCC(=O)O)N(CCc1c[nH]c2ccccc12)C(=O)c1cc(Br)cc(Br)c1O (centres undefined)	15	–	–
O=C(NC(Cc1ccc(O)cc1)C(=O)N(CCc1c[nH]c2ccccc12)C(C(=O)NCCN1CCOCC1)c1ccc(OCP(=O)(O)O)cc1)OCC1c2ccccc2-c2ccccc21 (centres undefined)	8	16	6.1
CC(C)=CCCC(C)C(C(=O)NC1CCCCC1)N(CCc1c[nH]c2ccccc12)C(=O)c1ccc(C(F)(F)P(=O)(O)O)cc1 (centres undefined)	27	–	–
O=C(O)C(Oc1ccc(C(=O)N(Cc2ccc3c(c2)OCO3)C(C(=O)NC2CCCCC2)c2ccc(OCP(=O)(O)O)cc2)cc1)C(=O)O (centres undefined)	0.7	82	5
